Laboratory results: ChEMBL document CHEMBL3352267, “The design and implementation of a generic lipopeptide scanning platform to enable the identification of 'locally acting' agonists for the apelin receptor” (Bioorg Med Chem Lett, 2014)
The source made the active and inactive calls. The calls are words filed in the database; no cut-off is given here. Residues, ends and D or L forms follow the SMILES beside them. *: point of attachment. Palmitoyl = CCCCCCCCCCCCCCCC(=O)*

How the values were obtained:
[1] = target: Sphingosine 1-phosphate receptor Edg-5/Sphingosine 1-phosphate receptor Edg-3 (Homo sapiens) (UniProt O95136+Q99500); experiment: Agonist activity at S1P2/3 receptor in HEK293 cells assessed as inhibition of forskolin-induced cAMP level after 1 hr by alphascreen immunoassay; assay type: functional, cell-based
[2] = target: T1, D(4) dopamine receptor (Homo sapiens) (UniProt P21917); experiment: Agonist activity at human D4 receptor expressed in Chem-5 cells assessed as calcium mobilization by FLIPR assay; assay type: functional, cell-based
T1 sequence (whole entry): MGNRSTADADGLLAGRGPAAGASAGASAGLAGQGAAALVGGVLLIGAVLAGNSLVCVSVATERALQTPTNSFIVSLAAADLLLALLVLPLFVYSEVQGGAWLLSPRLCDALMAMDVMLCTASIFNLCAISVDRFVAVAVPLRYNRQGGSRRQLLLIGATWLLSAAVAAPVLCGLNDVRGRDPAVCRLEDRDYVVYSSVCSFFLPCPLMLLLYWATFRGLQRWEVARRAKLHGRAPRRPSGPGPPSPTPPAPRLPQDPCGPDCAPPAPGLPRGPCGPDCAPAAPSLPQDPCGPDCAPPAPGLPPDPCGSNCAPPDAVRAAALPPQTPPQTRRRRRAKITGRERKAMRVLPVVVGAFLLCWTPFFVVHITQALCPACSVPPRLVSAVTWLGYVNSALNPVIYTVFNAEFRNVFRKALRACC

[3] = target: Beta-2 adrenergic receptor (Homo sapiens, UniProt P07550); experiment: Agonist activity at beta-2 adrenergic receptor (unknown origin) expressed in CHOK1 cells by HTRF cAMP immunoassay; assay type: functional, cell-based, CHO-K1
Chain of Beta-2 adrenergic receptor (P07550 whole entry): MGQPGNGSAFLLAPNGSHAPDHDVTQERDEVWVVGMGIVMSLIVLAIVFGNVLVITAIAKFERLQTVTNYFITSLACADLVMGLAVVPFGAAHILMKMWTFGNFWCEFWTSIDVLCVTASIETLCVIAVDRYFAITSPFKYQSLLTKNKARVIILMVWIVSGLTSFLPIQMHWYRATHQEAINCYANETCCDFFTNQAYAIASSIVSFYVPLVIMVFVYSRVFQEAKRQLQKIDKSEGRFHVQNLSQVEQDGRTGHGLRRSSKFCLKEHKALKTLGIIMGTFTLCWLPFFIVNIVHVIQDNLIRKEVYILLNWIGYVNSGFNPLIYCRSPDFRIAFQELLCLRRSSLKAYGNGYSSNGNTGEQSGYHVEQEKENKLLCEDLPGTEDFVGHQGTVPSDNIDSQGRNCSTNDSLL

[4] = target: T2, 5-hydroxytryptamine receptor 1A (Homo sapiens, UniProt P08908); experiment: Agonist activity at 5HT1A receptor (unknown origin) expressed in HeLa cells after 3 mins by calcium flux/FLIPR assay; assay type: functional, cell-based
T2 sequence (P08908 whole entry): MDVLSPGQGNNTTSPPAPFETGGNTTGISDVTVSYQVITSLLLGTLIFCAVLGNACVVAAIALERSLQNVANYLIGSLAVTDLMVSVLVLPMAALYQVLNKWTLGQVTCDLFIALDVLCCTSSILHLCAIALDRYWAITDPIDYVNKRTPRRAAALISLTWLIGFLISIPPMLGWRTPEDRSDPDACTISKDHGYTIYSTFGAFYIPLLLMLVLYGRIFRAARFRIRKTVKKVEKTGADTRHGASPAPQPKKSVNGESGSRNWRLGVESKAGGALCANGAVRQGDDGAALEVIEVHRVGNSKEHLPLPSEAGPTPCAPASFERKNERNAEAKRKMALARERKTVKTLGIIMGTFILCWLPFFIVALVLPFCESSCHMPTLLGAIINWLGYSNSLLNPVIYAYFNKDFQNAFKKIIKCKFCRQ

[5] = target: T3, 5-hydroxytryptamine receptor 2A (Homo sapiens, UniProt P28223); experiment: Agonist activity at 5HT2A receptor (unknown origin) expressed in CHOK1 cells after 3 mins by calcium flux/FLIPR assay; assay type: functional, cell-based, CHO-K1
T3 sequence (P28223 whole entry): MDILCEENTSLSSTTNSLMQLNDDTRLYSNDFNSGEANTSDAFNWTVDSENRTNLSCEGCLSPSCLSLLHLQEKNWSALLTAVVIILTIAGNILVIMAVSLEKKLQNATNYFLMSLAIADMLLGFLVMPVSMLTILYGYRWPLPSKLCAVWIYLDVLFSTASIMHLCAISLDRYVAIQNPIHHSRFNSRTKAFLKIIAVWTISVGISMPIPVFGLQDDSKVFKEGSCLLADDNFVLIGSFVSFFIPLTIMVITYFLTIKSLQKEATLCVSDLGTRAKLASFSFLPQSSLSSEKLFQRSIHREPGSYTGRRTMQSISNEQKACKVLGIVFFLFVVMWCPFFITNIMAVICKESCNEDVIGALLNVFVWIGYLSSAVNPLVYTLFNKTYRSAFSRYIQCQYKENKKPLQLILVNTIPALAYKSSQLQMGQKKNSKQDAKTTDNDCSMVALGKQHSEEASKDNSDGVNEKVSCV

[6] = target: T4, 5-hydroxytryptamine receptor 2B (Homo sapiens, UniProt P41595); experiment: Agonist activity at 5HT2B receptor (unknown origin) expressed in CHOK1 cells after 3 mins by calcium flux/FLIPR assay; assay type: functional, cell-based, CHO-K1
T4 sequence (P41595 whole entry): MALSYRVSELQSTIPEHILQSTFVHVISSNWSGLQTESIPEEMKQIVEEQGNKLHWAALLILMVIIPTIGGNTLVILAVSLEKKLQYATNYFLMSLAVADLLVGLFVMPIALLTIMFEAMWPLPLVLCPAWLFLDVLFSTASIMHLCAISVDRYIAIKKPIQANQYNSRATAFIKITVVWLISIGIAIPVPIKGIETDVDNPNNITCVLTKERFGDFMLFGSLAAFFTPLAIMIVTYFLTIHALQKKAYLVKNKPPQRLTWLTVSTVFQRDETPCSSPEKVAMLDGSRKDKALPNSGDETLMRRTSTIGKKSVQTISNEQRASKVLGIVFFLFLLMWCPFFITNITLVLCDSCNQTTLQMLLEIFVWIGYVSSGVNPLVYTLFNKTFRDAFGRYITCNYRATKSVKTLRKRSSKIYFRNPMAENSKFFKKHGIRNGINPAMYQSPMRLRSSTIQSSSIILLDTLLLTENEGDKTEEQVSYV

Cannabinoid receptor 1 [7] = target: T5, Cannabinoid receptor 1 (Homo sapiens, UniProt P21554); experiment: Agonist activity at CB1 receptor (unknown origin) expressed in rat CHEM-1 cells after 3 mins by calcium flux/FLIPR assay; assay type: functional, cell-based
T5 sequence (P21554 whole entry): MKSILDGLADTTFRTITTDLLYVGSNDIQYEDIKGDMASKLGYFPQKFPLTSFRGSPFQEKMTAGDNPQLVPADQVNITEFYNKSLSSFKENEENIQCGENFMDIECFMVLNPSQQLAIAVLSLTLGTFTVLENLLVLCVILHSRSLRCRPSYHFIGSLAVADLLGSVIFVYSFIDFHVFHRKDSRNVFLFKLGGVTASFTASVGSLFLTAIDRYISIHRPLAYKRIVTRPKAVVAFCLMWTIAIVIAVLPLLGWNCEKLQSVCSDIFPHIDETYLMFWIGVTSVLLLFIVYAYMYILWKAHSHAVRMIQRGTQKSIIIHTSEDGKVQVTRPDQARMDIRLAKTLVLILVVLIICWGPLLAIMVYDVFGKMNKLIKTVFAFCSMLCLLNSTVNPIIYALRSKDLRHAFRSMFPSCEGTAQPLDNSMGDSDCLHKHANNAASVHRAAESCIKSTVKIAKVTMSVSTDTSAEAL

[8] = target: T6, Alpha-1A adrenergic receptor (Homo sapiens, UniProt P35348); experiment: Agonist activity at alpha-1A adrenergic receptor (unknown origin) expressed in CHOK1 cells after 3 mins by calcium flux/FLIPR assay; assay type: functional, cell-based, CHO-K1
T6 sequence (P35348 whole entry): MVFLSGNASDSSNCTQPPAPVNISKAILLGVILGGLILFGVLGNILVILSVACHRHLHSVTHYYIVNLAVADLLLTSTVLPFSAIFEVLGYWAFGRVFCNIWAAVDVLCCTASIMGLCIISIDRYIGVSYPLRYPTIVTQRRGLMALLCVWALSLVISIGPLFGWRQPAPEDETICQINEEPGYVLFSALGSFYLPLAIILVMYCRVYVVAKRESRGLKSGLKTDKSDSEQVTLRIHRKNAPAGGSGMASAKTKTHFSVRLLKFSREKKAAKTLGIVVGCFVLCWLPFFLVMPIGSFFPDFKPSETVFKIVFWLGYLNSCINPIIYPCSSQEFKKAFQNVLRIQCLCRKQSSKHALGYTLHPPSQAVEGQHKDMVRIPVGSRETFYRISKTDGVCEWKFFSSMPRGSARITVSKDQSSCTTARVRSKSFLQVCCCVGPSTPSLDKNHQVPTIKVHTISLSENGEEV

D(1A) dopamine receptor [9] = target: T7, D(1A) dopamine receptor (Homo sapiens, UniProt P21728); experiment: Agonist activity at D1A receptor (unknown origin) expressed in CHOK1 cells by HTRF cAMP immunoassay; assay type: functional, cell-based, CHO-K1
T7 sequence (P21728 whole entry): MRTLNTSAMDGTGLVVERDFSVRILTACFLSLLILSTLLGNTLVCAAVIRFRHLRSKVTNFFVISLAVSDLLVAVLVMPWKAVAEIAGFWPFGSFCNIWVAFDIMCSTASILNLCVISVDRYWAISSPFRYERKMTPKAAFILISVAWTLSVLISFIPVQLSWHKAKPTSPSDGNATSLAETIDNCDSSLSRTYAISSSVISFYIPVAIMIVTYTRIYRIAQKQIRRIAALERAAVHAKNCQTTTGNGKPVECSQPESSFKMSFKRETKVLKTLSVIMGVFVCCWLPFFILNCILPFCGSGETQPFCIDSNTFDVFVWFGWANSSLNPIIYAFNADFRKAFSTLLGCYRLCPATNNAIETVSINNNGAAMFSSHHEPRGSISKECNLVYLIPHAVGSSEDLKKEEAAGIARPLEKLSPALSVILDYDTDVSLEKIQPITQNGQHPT

[10] = target: T8, Muscarinic acetylcholine receptor M2 (Homo sapiens, UniProt P08172); experiment: Agonist activity at muscarinic acetylcholine receptor M2 (unknown origin) expressed in CHOK1 cells after 3 mins by calcium flux/FLIPR assay; assay type: functional, cell-based, CHO-K1
T8 sequence (P08172 whole entry): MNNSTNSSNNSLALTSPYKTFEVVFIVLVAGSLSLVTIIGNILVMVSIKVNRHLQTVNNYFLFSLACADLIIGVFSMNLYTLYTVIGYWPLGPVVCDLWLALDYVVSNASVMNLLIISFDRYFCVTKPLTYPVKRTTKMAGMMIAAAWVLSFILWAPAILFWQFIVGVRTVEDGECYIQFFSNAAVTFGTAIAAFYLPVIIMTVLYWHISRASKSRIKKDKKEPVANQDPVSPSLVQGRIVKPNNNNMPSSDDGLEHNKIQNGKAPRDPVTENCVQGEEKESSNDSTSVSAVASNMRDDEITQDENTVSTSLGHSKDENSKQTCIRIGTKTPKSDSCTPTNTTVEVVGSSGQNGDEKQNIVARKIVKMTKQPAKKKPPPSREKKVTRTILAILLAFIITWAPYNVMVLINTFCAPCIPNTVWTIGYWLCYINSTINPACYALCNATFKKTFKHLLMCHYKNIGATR

Thromboxane A2 receptor [11] = target: T9, Thromboxane A2 receptor (Homo sapiens, UniProt P21731); experiment: Agonist activity at thromboxane A2 receptor (unknown origin) expressed in HEK293-EBNA cells after 3 mins by calcium flux/FLIPR assay; assay type: functional, cell-based
T9 sequence (P21731 whole entry): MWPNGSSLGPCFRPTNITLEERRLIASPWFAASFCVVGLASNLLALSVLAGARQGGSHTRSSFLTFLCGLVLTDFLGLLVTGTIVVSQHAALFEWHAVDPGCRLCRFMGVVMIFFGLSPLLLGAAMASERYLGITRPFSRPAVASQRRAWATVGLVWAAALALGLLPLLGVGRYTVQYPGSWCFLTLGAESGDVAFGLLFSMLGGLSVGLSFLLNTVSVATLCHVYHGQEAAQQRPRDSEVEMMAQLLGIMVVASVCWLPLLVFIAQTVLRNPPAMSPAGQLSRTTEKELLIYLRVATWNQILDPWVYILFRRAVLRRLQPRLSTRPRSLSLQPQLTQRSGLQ

[12] = target: T2, 5-hydroxytryptamine receptor 1A; experiment: Antagonist activity at 5HT1A receptor (unknown origin) expressed in HeLa cells after 15 mins by calcium flux/FLIPR assay in presence of R-(+)-8-OH-DPAT; assay type: functional, cell-based
[13] = target: T3, 5-hydroxytryptamine receptor 2A; experiment: Antagonist activity at 5HT2A receptor (unknown origin) expressed in CHOK1 cells after 15 mins by calcium flux/FLIPR assay in presence of 5HT; assay type: functional, cell-based, CHO-K1
[14] = target: T4, 5-hydroxytryptamine receptor 2B; experiment: Antagonist activity at 5HT2B receptor (unknown origin) expressed in CHOK1 cells after 15 mins by calcium flux/FLIPR assay in presence of BW723C86; assay type: functional, cell-based, CHO-K1
Cannabinoid receptor 1 [15] = target: T5, Cannabinoid receptor 1; experiment: Antagonist activity at CB1 receptor (unknown origin) expressed in rat CHEM-1 cells after 15 mins by calcium flux/FLIPR assay in presence of CP55940; assay type: functional, cell-based
[16] = target: T6, Alpha-1A adrenergic receptor; experiment: Antagonist activity at alpha-1A adrenergic receptor (unknown origin) expressed in CHOK1 cells after 15 mins by calcium flux/FLIPR assay in presence of A-61603; assay type: functional, cell-based, CHO-K1
D(1A) dopamine receptor [17] = target: T7, D(1A) dopamine receptor; experiment: Antagonist activity at D1A receptor (unknown origin) expressed in CHOK1 cells after 5 mins by HTRF cAMP immunoassay in presence of cAMP/SKF38393; assay type: functional, cell-based, CHO-K1
[18] = target: T8, Muscarinic acetylcholine receptor M2; experiment: Antagonist activity at muscarinic acetylcholine receptor M2 (unknown origin) expressed in CHOK1 cells after 15 mins by calcium flux/FLIPR assay in presence of acetylcholine; assay type: functional, cell-based, CHO-K1
Thromboxane A2 receptor [19] = target: T9, Thromboxane A2 receptor; experiment: Antagonist activity at thromboxane A2 receptor (unknown origin) expressed in HEK293-EBNA cells after 15 mins by calcium flux/FLIPR assay in presence of U-46619; assay type: functional, cell-based

CCCCCCCCCCCCCCCC(=O)N[C@H](C(=O)N[C@H](C(=O)N[C@@H](CC(C)C)C(=O)N1CCC[C@H]1C(=O)N[C@@H](CC(C)C)C(=O)N[C@@H](Cc1c[nH]c2ccccc12)C(=O)N[C@@H](C)C(=O)N[C@H](C(=O)N[C@@H](Cc1ccc(O)cc1)C(=O)N[C@H](C(=O)N[C@@H](Cc1ccc(O)cc1)C(=O)N[C@@H](CCCNC(=N)N)C(N)=O)[C@@H](C)O)[C@@H](C)O)[C@@H](C)O)C(C)C (Palmitoyl-VTLPLWATYTYR-NH2)
Activity [1]: inactive
Activity [2]: inactive
EC50 [3]: > 30 µM
EC50 [4]: > 30 µM
EC50 [5]: > 30 µM
EC50 [6]: > 30 µM
EC50 (Cannabinoid receptor 1 [7]): > 30 µM
EC50 [8]: > 30 µM
EC50 (D(1A) dopamine receptor [9]): > 30 µM
EC50 [10]: > 30 µM
EC50 (Thromboxane A2 receptor [11]): > 30 µM
IC50 [12]: > 30 µM
IC50 [13]: > 30 µM
IC50 [14]: > 30 µM
IC50 (Cannabinoid receptor 1 [15]): > 30 µM
IC50 [16]: > 30 µM
IC50 (D(1A) dopamine receptor [17]): > 30 µM
IC50 [18]: > 30 µM
IC50 (Thromboxane A2 receptor [19]): > 30 µM
